Data as given in US20250382344A1, “Soluble GLP1/GIP/NPY2 Receptor Triple Agonists” (Boehringer Ingelheim International GmH, priority 2024, published 2025).
Where two headings read alike, the source gives them in different places.

Columns and labels:
hGLP1R = target: T1, hGLP1R (Homo sapiens, UniProt P43220); experiment: hGLP1R CreLuc assay in 0.5% and 100% plasma (HEK-293 CRE-luciferase reporter cells); format: cell-based; conditions: 0.5% human plasma, HEK-293 reporter cells, read-out: hGLP1R 0.5% hP
T1 construct: expressed in transfected cells; host or cells: HEK-293 CRE-luciferase reporter cells
T1 sequence (P43220 24-463): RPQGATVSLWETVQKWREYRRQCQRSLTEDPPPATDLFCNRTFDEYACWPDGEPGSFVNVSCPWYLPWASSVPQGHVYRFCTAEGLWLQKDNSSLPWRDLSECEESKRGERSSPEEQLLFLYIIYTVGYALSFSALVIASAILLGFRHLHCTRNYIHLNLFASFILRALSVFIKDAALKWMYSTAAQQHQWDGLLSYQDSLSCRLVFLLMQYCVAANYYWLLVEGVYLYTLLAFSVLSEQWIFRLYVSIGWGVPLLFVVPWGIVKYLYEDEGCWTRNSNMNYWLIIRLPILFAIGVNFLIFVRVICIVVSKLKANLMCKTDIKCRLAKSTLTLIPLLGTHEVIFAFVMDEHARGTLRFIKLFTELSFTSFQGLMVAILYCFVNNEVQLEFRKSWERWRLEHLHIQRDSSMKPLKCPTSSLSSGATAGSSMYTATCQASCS

hGIPR = target: T2, hGIPR (Homo sapiens, UniProt P48546); experiment: hGIPR CreLuc assay in 0.5% and 100% plasma (CHO CRE-luciferase reporter cells); format: cell-based; conditions: 0.5% human plasma, read-out: hGIPR 0.5% hP
T2 construct: expressed in transfected cells; host or cells: CHO CRE-luciferase reporter cells
T2 sequence (P48546 22-466): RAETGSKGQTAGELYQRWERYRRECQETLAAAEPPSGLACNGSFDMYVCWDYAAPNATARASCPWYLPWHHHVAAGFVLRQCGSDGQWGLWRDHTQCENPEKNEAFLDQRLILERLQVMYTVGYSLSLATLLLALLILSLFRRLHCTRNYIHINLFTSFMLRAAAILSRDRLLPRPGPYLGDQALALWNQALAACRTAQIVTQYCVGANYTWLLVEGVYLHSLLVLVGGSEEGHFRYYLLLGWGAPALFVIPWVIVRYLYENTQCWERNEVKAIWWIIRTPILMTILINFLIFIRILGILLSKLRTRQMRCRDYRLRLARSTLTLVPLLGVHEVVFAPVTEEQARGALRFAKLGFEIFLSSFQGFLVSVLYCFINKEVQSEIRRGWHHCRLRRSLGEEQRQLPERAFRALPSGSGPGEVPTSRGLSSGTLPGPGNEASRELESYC

hNPY2R = target: T3, hNPY2R (Homo sapiens, UniProt P49146); experiment: hNPY2R CreLuc assay in 0.5% and 100% plasma (HEK-293 CRE-luciferase reporter cells); format: cell-based; conditions: HEK-293 reporter cells
T3 construct: expressed in transfected cells; host or cells: HEK-293 CRE-luciferase reporter cells
T3 sequence (P49146 1-381): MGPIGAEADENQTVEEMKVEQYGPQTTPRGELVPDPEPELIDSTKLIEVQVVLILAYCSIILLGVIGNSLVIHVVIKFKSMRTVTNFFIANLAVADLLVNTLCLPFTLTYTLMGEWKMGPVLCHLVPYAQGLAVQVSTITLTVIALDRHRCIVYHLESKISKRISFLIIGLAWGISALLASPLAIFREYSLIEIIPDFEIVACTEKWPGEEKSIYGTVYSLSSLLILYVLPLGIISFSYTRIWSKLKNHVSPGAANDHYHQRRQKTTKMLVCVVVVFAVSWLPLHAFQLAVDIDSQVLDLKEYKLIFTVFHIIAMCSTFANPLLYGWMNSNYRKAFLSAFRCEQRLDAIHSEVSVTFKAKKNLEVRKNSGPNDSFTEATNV

[1] = Solubility in 0.1 M phosphate buffer at pH 7; format: physicochemical; conditions: 0.1 M phosphate buffer at pH 7, 10 mg/mL final peptide concentration, shaking 2 hours at room temperature, peptides as TFA-salts; measured sample pH 6.5-7.0

SMILES	EC50 (hGLP1R) [nM]	EC50 (hGIPR) [nM]	EC50 (hNPY2R; 0.5% human plasma, read-out: hNPY2R 0.5% hP) [nM]	solubility at 2 h [1] [µg/mL]	EC50 (hNPY2R; 100% human plasma, read-out: hNPY2R 100% hP) [nM]
CC[C@H](C)[C@H](NC(=O)[C@H](CC(C)C)NC(=O)[C@H](Cc1c[nH]cn1)NC(=O)[C@H](CCCNC(=N)N)NC(=O)[C@@H](NC(=O)[C@H](Cc1ccccc1)NC(=O)[C@H](CCC(=O)O)NC(=O)C(C)(C)NC(=O)[C@H](CCC(N)=O)NC(=O)[C@H](C)NC(=O)[C@H](CCC(N)=O)NC(=O)[C@H](CCCCN)NC(=O)[C@H](CC(=O)O)NC(=O)[C@H](CC(C)C)NC(=O)C(C)(C)NC(=O)[C@@H](NC(=O)[C@H](CO)NC(=O)[C@H](Cc1ccc(O)cc1)NC(=O)[C@H](CC(=O)O)NC(=O)[C@H](CO)NC(=O)[C@@H](NC(=O)[C@H](Cc1ccccc1)NC(=O)[C@@H](NC(=O)CNC(=O)[C@H](CCC(=O)O)NC(=O)C(C)(C)NC(=O)[C@@H](N)Cc1ccc(O)cc1)[C@@H](C)O)[C@@H](C)O)[C@@H](C)CC)C(C)C)C(=O)N[C@@H](CC(N)=O)C(=O)N[C@@H](CCCCNC(=O)[C@@H](N)CCCCNC(=O)CC[C@H](NC(=O)CC[C@H](NC(=O)CC[C@H](NC(=O)CC[C@H](NC(=O)CC[C@H](NC(=O)CC[C@H](NC(=O)CCCCCCCCCCCCCCCCC(=O)O)C(=O)O)C(=O)O)C(=O)O)C(=O)O)C(=O)O)C(=O)O)C(=O)NC(C)(C)C(=O)N[C@H](C(=O)N[C@@H](CCCNC(=N)N)C(=O)N[C@@H](CCC(N)=O)C(=O)N[C@@H](CCCNC(=N)N)C(=O)N[C@@H](Cc1ccc(O)cc1)C(N)=O)[C@@H](C)O [Compound 131, Y-Aib-E-G-T-F-T-S-D-Y-S-I-Aib-L-D-K-Q-A-Q-Aib-E-F-V-R-H-L-I-N-K(1,3)-Aib-T-R-Q-R-Y-NH2.C18DA-gGlu-gGlu-gGlu-gGlu-gGlu-gGlu-eLys(1,2)]	0.1	0.3	17.5	9000	–
CC[C@H](C)[C@H](NC(=O)[C@H](CC(C)C)NC(=O)[C@H](Cc1c[nH]cn1)NC(=O)[C@H](CCCNC(=N)N)NC(=O)[C@@H](NC(=O)[C@H](Cc1ccccc1)NC(=O)[C@H](C)NC(=O)C(C)(C)NC(=O)[C@H](CCC(N)=O)NC(=O)[C@H](C)NC(=O)[C@H](CCC(N)=O)NC(=O)[C@H](CCC(N)=O)NC(=O)[C@H](CC(=O)O)NC(=O)[C@H](CC(C)C)NC(=O)C(C)(C)NC(=O)[C@@H](NC(=O)[C@H](CO)NC(=O)[C@H](Cc1ccc(O)cc1)NC(=O)[C@H](CC(=O)O)NC(=O)[C@H](CO)NC(=O)[C@@H](NC(=O)[C@H](Cc1ccccc1)NC(=O)[C@@H](NC(=O)CNC(=O)[C@H](CCC(=O)O)NC(=O)C(C)(C)NC(=O)[C@@H](N)Cc1ccc(O)cc1)[C@@H](C)O)[C@@H](C)O)[C@@H](C)CC)C(C)C)C(=O)N[C@@H](CC(N)=O)C(=O)N[C@@H](CCCCNC(=O)[C@@H](N)CCCCNC(=O)CC[C@H](NC(=O)CC[C@H](NC(=O)CC[C@H](NC(=O)CC[C@H](NC(=O)CC[C@H](NC(=O)CCCCCCCCCCCCCCCCC(=O)O)C(=O)O)C(=O)O)C(=O)O)C(=O)O)C(=O)O)C(=O)NC(C)(C)C(=O)N[C@H](C(=O)N[C@@H](CCCNC(=N)N)C(=O)N[C@@H](CCC(N)=O)C(=O)N[C@@H](CCCNC(=N)N)C(=O)N[C@@H](Cc1ccc(O)cc1)C(N)=O)[C@@H](C)O [Compound 70, Y-Aib-E-G-T-F-T-S-D-Y-S-I-Aib-L-D-Q-Q-A-Q-Aib-A-F-V-R-H-L-I-N-K(1,3)-Aib-T-R-Q-R-Y-NH2.C18DA-gGlu-gGlu-gGlu-gGlu-gGlu-eLys(1,2)]	0.2	0.2	–	9100	119
